According to ChEMBL document CHEMBL5113369, “A review on the structure and pharmacological activity of phenylethanoid glycosides” (Eur J Med Chem, 2021):

Columns and labels:
Type in all cases: ADME, organism-based, Canis lupus familiaris
Details in all cases: in vivo, dose 10-40 mg/kg
[1] = Tmax in Beagle dog at 10 to 40 mg/kg, po measured up to 8 hrs by LC-MS/MS analysis
[2] = Half life in Beagle dog at 10 to 40 mg/kg, po measured up to 8 hrs by LC-MS/MS analysis
[3] = Oral bioavailability in Beagle dog at 10 to 40 mg/kg measured up to 8 hrs by LC-MS/MS analysis

- Tmax [1]: 0.5 h
- half-life [2]: 1.5 h
- bioavailability [3]: 4%
SMILES: C[C@@H]1O[C@@H](O[C@@H]2[C@@H](O)[C@H](OCCc3ccc(O)c(O)c3)O[C@H](CO)[C@H]2OC(=O)/C=C/c2ccc(O)c(O)c2)[C@H](O)[C@H](O)[C@H]1O [ACETOSIDE]
